Experimental data taken from ChEMBL document CHEMBL1201862, “PubChem BioAssay data set” (2004).
Values belong to the molecule of their own block, whether it stands above or below them. Activity calls are given as the source filed them.

Experiments:
[1] = target: Aspartyl aminopeptidase (Plasmodium falciparum 3D7, UniProt Q8I2J3)
[2] = target: T1, Trace amine-associated receptor 1 (Homo sapiens, UniProt Q96RJ0); test: Fluorescence-based cell-based high throughput dose response assay to identify agonists of the human trace amine associated receptor 1 (TAAR1).; assay type: functional
T1 sequence (Q96RJ0 whole entry): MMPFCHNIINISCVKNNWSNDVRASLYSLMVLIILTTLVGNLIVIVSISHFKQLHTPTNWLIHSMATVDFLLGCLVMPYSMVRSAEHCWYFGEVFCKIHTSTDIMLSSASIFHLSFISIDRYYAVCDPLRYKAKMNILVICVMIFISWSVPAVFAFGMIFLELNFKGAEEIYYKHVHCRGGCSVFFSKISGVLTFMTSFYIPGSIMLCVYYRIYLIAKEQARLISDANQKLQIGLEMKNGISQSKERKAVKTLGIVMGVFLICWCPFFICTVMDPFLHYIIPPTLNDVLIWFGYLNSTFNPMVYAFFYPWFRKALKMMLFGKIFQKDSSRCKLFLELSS

[3] = target: T2, Alkaline phosphatase, tissue-nonspecific isozyme (Homo sapiens, UniProt P05186); test: TNAP enzyme activators, dose response, selectivity assay for mouse IAP activator project, biochemical, TNAP isozyme, mouse IAP uHTS hits (AID 488880); assay type: functional
T2 sequence (P05186 whole entry): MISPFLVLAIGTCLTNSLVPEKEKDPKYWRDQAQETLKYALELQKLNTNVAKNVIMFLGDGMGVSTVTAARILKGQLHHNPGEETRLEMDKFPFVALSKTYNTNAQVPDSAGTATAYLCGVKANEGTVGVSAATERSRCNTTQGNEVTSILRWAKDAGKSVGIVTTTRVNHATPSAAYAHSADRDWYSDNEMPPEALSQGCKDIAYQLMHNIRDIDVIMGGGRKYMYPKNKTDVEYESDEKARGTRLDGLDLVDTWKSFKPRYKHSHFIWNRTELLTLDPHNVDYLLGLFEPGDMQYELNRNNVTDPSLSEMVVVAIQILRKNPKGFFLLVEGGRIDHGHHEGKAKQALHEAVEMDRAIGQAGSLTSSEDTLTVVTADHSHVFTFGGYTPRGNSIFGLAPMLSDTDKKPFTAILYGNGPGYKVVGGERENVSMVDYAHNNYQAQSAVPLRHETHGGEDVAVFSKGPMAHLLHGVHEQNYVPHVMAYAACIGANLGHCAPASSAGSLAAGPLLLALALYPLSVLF

[4] = cells; assay type: functional, cell-based
[5] = target: Intestinal-type alkaline phosphatase (Homo sapiens, UniProt P09923); test: activation of human intestinal alkaline phosphatase – biochemical, dose response (AID 488873); assay type: functional
Chain of Intestinal-type alkaline phosphatase (Homo sapiens, UniProt P09923) (P09923 whole entry): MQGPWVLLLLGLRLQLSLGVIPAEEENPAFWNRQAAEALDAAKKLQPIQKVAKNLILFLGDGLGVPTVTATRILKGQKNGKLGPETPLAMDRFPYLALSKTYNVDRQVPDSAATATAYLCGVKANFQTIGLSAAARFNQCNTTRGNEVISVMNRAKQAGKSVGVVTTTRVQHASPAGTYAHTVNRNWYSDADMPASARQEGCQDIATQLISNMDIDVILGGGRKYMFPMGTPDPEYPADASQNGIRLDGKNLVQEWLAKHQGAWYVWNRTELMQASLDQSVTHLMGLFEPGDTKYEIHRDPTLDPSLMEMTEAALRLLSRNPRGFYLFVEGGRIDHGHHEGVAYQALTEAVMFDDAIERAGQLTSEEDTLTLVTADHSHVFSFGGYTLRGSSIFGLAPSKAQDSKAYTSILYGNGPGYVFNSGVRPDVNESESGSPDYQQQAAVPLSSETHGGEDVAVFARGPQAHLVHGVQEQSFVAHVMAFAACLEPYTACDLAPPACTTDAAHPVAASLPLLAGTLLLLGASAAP

[6] = cells; assay type: functional, cell-based; remark: listed apart in the source
[7] = target: T3, SUMO-activating enzyme (Homo sapiens, UniProt Q9UBT2); test: SUMOylation inhibitor hit validation, confirmation, SUMOylation inhibitor project, biochemical, AlphaScreen (AID 2018); assay type: functional
T3 sequence (Q9UBE0 whole entry): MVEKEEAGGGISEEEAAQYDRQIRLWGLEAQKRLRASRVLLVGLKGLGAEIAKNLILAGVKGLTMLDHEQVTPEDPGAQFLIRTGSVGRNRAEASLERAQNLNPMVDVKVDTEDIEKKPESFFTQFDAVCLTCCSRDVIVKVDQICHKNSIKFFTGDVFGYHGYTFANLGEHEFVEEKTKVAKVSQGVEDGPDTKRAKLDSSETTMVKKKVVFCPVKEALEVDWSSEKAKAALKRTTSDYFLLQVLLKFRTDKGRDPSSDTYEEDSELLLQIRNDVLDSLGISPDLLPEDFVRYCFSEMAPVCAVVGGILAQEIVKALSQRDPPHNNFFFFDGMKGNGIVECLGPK
T3 sequence (Q9UBT2 whole entry): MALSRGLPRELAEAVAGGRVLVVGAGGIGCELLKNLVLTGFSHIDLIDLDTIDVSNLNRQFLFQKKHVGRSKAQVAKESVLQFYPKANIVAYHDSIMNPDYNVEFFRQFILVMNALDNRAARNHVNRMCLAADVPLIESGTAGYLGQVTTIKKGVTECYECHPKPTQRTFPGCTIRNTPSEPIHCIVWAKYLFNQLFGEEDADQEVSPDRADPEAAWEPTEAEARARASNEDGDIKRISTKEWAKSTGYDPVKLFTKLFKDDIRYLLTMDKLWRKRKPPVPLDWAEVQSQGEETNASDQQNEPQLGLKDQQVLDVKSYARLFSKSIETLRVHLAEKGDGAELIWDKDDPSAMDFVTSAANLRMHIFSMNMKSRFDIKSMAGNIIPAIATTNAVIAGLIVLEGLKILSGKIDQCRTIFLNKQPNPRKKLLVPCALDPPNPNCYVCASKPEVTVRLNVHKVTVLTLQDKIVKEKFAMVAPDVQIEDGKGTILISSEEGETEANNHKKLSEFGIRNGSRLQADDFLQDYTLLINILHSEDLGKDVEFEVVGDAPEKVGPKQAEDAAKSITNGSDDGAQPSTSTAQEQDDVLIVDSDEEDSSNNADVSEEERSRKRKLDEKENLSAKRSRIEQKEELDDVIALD

[8] = target: T3, SUMO-activating enzyme; test: inhibitors of in vitro SUMOylation cascade, primary screen, biochemical, HTRF, uHTS (AID 2006); assay type: protein-complex assay
[9] = target: Large T antigen (Simian virus 40, UniProt P03070); assay type: functional, Betapolyomavirus macacae;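 further: Confirmatory-stage PubChem screen for compounds that inhibit SV40 T antigen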
Chain of Large T antigen (P03070 whole entry): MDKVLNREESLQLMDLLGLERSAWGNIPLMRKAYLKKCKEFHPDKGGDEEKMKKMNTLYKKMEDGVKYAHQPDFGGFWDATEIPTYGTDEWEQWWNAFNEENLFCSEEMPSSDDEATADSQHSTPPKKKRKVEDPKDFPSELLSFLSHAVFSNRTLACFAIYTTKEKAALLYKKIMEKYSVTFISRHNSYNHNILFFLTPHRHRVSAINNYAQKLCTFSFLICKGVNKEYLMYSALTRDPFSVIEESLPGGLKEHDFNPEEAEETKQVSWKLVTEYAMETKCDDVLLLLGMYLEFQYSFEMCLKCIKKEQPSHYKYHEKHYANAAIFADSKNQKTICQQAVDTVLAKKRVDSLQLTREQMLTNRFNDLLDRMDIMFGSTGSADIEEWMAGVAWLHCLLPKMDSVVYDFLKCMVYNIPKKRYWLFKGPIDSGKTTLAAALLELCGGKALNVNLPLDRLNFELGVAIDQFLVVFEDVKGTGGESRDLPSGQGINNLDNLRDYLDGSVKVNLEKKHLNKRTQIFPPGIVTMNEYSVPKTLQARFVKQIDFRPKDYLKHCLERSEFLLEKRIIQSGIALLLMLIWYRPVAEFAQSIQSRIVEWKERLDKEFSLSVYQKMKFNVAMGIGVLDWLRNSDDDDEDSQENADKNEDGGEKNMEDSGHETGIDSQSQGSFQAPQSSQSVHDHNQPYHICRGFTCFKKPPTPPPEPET

[10] = target: Albumin (Bos taurus, UniProt P02769); test: Counterscreen for inhibitors of T-cell receptor (TCR)-CD3 interaction: Fluorescence-based biochemical high throughput dose response assay to identify inhibitors of T-cell receptor (TCR)-CD3 interaction using a TAMRA-labeled BSA probe.; assay type: functional
Chain of Albumin (P02769 whole entry): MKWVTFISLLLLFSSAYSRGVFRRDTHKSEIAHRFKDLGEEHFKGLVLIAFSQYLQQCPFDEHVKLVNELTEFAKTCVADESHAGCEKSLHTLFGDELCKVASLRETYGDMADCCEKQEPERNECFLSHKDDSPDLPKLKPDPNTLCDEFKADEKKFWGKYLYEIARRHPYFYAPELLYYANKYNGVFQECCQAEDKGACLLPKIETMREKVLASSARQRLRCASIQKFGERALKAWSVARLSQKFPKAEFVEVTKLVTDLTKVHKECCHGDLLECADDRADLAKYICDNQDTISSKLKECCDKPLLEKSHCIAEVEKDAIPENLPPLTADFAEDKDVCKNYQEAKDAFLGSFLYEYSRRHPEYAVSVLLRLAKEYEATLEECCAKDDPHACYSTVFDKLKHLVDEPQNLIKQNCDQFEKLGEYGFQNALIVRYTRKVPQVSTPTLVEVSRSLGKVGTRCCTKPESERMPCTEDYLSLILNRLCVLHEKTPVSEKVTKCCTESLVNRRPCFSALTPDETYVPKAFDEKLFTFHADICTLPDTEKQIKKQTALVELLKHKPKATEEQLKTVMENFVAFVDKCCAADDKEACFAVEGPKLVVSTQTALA

[11] = target: T1, Trace amine-associated receptor 1; test: Counterscreen for agonists of the human trace amine associated receptor 1 (hTAAR1): Fluorescence-based cell-based high throughput dose response assay to identify hTAAR1 agonist that also desensitize TAAR1 receptor response.; assay type: functional
[12] = target: Dual specificity tyrosine-phosphorylation-regulated kinase 1A (Rattus norvegicus, UniProt Q63470); assay type: biochemical, Homo sapiens
[13] = target: Intestinal-type alkaline phosphatase (Mus musculus, UniProt P24822); test: mouse intestinal alkaline phosphatase activators, dose response, biochemical, luminescence, uHTS hits (AID 488783); assay type: functional
Chain of Intestinal-type alkaline phosphatase (Mus musculus, UniProt P24822) (P24822 whole entry, the tested form may be a part): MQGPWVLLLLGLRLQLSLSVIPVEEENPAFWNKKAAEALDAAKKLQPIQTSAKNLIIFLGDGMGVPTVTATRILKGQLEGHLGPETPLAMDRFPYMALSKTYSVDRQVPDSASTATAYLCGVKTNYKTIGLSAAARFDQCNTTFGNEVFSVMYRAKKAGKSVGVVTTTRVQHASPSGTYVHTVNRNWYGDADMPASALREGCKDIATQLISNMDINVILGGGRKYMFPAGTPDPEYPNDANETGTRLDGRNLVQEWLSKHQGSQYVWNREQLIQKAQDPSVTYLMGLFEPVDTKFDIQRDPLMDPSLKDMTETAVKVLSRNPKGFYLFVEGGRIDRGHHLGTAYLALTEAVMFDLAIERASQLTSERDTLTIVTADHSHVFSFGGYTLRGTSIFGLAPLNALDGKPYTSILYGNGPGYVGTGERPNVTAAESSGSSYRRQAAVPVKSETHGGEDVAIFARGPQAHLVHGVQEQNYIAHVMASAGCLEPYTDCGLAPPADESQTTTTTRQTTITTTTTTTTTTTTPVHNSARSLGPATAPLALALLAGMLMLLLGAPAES

[14] = target: T4, RNA-binding protein pos-1 (Caenorhabditis elegans, UniProt G5EF15); test: inhibitors of POS-1/mex-3 RNA binding, dose response, biochemical, fluorescence polarization (AID 1964);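 further: purified POS-1 fused to maltose binding protein made in E. coli; potency of compounds blocking POS-1 binding to fluorescent RNA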
T4 sequence (G5EF15 whole entry): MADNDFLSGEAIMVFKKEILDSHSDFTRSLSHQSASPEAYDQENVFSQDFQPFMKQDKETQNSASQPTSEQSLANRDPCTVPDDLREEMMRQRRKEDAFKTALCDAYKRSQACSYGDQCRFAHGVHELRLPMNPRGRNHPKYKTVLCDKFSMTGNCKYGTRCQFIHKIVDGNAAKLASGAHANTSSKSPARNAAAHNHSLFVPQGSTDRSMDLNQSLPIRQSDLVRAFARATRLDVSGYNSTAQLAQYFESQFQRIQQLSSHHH

[15] = target: Procathepsin L (Homo sapiens, UniProt P07711)
[16] = target: T5, Zinc finger protein mex-5 (Caenorhabditis elegans, UniProt Q9XUB2); test: MEX-5/TCR-2 RNA interaction inhibitors, dose response, biochemical, C. elegans, fluorescence polarization (AID 1960)
T5 sequence (Q9XUB2 whole entry): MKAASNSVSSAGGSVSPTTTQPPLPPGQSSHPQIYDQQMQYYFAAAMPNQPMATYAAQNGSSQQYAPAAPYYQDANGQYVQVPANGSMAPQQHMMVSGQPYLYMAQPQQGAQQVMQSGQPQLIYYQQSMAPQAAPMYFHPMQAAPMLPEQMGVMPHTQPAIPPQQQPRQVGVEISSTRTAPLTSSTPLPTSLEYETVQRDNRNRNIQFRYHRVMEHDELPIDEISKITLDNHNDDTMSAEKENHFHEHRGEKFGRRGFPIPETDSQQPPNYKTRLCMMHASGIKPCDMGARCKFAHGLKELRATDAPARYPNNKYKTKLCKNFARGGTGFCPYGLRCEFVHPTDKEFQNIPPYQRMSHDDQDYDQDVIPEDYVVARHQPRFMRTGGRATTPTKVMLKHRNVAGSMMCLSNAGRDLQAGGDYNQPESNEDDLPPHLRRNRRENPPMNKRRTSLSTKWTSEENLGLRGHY

[17] = target: T6, Leucine aminopeptidase (Plasmodium falciparum 3D7, UniProt Q8IL11); test: P. falciparum M17LAP inhibitors, primary screen, biochemical, fluorogenic H-Leu-NHMec substrate, 1536-well (AID 1619); assay type: functional
T6 sequence (Q8IL11 whole entry): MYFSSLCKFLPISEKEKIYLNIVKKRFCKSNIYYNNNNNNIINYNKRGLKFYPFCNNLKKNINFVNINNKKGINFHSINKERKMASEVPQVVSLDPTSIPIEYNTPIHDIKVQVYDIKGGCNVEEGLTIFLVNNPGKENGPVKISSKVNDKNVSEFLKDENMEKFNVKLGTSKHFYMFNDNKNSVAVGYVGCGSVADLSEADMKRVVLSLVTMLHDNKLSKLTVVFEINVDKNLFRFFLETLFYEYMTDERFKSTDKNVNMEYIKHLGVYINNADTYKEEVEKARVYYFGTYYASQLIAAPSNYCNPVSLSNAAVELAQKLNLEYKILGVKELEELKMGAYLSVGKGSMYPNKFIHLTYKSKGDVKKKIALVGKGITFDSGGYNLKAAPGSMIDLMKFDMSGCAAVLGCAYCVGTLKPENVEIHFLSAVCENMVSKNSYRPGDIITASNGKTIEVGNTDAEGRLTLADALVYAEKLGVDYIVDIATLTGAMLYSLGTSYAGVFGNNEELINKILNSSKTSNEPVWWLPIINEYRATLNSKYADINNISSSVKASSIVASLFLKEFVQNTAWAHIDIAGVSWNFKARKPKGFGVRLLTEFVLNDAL

[18] = target: Estrogen receptor beta (Homo sapiens, UniProt Q92731); test: ERβ–SRC-3 coactivator interaction inhibitors, confirmation, orthogonal assay, biochemical, ELISA, streptavidin-HRP readout (AID 1060)
Chain of Estrogen receptor beta (Q92731 whole entry): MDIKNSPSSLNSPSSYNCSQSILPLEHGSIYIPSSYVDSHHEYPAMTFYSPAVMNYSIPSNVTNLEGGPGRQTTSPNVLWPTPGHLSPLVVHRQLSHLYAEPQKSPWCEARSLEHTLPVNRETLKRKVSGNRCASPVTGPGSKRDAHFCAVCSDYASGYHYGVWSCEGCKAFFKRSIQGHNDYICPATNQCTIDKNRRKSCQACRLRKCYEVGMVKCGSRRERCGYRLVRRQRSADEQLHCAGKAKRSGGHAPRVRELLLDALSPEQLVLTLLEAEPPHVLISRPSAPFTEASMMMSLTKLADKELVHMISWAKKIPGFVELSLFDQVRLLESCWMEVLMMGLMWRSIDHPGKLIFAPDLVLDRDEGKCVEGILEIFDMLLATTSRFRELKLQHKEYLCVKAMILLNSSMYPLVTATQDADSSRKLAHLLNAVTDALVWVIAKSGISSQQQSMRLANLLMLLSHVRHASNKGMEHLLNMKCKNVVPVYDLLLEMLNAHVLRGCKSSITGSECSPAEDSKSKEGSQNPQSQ

[19] = target: T2, Alkaline phosphatase, tissue-nonspecific isozyme; test: human TNAP enzyme inhibitors, SAR follow-up, biochemical, luminescent, dose response (AID 1056)
[20] = target: T7, Bcl-2-like protein 10 (Homo sapiens, UniProt Q9HD36); test: displacers of TR3 peptide from Bcl-B, primary screen, selectivity assay for Bfl-1 inhibitor project, biochemical, fluorescence polarization, FITC-TR3 peptide (AID 748);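 further: fluorescence polarization from a fluorescein-labelled TR3 peptide binding purified Bcl-B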
T7 sequence (Q9HD36 whole entry): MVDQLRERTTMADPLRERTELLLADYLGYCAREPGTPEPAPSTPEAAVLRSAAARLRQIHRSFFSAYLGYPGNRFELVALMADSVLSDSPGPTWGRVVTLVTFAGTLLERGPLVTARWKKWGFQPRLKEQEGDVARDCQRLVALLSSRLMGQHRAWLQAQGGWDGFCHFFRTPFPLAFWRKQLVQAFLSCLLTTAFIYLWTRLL

[21] = target: Alkaline phosphatase, placental type (Homo sapiens, UniProt P05187); test: PLAP enzyme inhibitors, confirmation, biochemical, luminescence (AID 1512); assay type: functional
Chain of Alkaline phosphatase, placental type (P05187 whole entry): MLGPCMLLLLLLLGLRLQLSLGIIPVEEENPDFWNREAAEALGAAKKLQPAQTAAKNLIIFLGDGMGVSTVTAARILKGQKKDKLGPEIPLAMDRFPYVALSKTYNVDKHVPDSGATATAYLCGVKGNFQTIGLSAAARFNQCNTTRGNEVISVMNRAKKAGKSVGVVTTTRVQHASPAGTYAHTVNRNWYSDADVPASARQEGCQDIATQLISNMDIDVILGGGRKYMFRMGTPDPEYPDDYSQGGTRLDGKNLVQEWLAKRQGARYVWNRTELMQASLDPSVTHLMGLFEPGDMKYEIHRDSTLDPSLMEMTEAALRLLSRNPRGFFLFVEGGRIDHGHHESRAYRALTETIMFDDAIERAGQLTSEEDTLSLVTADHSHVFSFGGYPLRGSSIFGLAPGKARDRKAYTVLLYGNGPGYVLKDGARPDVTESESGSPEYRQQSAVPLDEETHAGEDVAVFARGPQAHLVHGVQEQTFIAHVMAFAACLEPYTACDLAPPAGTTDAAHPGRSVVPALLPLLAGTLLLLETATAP

[22] = target: Glyceraldehyde-3-phosphate dehydrogenase (Homo sapiens, UniProt P04406)

Chain of Aspartyl aminopeptidase (Q8I2J3 whole entry): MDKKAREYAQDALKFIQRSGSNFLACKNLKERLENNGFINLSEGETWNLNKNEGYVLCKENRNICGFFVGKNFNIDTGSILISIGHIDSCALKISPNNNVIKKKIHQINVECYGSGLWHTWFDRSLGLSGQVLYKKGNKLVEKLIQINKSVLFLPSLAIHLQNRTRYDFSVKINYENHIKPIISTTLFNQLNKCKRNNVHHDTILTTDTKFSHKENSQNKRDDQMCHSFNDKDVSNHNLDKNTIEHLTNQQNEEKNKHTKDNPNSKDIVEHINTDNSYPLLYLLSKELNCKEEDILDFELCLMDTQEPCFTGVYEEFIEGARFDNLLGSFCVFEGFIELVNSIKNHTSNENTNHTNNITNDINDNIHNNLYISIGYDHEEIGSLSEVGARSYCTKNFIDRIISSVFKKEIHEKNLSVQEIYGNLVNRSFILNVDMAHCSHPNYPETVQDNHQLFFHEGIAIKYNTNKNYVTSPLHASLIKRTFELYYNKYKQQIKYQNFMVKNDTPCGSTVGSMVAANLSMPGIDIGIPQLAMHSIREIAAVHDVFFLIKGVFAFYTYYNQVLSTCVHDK

Compound: O=C(N/N=C/c1ccc(O)c(O)c1)N/N=C/c1ccc(O)c(O)c1
IC50 [1]: 2.79 µM (active) | EC50 [2]: 0.647 µM (active) | EC50 [3]: 79.4 µM (active) | EC50 [4]: > 29.9 µM (inactive) | EC50 [5]: 66.2 µM (active) | IC50 [6]: > 29.9 µM (inactive) | IC50 [7]: 0.69 µM (active) | IC50 [8]: 2.11 µM (active) | IC50 [9]: 0.73 µM (active) | IC50 [10]: > 94.1 µM (inactive) | IC50 [11]: > 9.97 µM (active) | AC50 [12]: 1.63 µM (active) | EC50 [13]: 4.96 µM (active) | EC50 [14]: 16.2 µM (active) | IC50 [15]: > 59.6 µM (not active) | EC50 [16]: 4.86 µM (inconclusive)

EC50 [3]: 36.4 µM (active) | IC50 [17]: 8.31 µM (active) | EC50 [5]: 42.4 µM (active) | IC50 [18]: 15.6 µM (not active) | IC50 [19]: 5.9 µM (active) | IC50 [20]: 31.5 µM (active) | IC50 [9]: 15.2 µM (active) | IC50 [21]: 11.4 µM (active) | EC50 [13]: 63.4 µM (active) | IC50 [22]: > 100 µM (not active)
Compound: O=C(CSc1nnc(-c2ccccc2)[nH]1)c1ccc(O)c(O)c1
